Data published in ChEMBL document CHEMBL2146389, “Possible conformation of amphotericin B dimer in membrane-bound assembly as deduced from solid-state NMR” (Bioorg Med Chem, 2012).

Columns and labels:
[1] = Binding affinity to ergosterol-containing palmitoyloleoylphosphatidylcholine membrane at 0.84 uM by UV spectra analysis; format: physicochemical
Aspergillus niger = experiment: Antifungal activity against Aspergillus niger assessed as minimum compound concentration per disc required for inhibition zone formation after 50 hrs by disc diffusion assay; format: functional
[2] = Hemolytic activity against human erythrocytes after 18 hrs by spectrophotometry; format: ADME, cell-based; conditions: Erythrocyte
[3] = Ratio of amphotericin B EC50 to compound EC50 for human erythrocytes; format: ADME, cell-based, Erythrocyte; conditions: read-out: Ratio EC50
[4] = Binding affinity to ergosterol-containing palmitoyloleoylphosphatidylcholine membrane at 1.67 uM by UV spectra analysis; format: physicochemical
[5] = Binding affinity to ergosterol-containing palmitoyloleoylphosphatidylcholine membrane by UV spectra analysis; format: physicochemical

Row | SMILES | Activity (Aspergillus niger) [µg] | EC50 [2] [µM] | also measured
1 | COC(=O)[C@H]1[C@@H]2C[C@@H](O[C@@H]3O[C@H](C)[C@@H](O)[C@H](NCCCNC(=O)CNC(=O)[C@H]4[C@@H]5C[C@@H](O[C@@H]6O[C@H](C)[C@@H](O)[C@H](N)[C@@H]6O)/C=C/C=C/C=C/C=C/C=C/C=C/C=C/[C@H](C)[C@@H](O)[C@@H](C)[C@H](C)OC(=O)C[C@H](O)C[C@H](O)CC[C@@H](O)[C@H](O)C[C@H](O)C[C@](O)(C[C@@H]4O)O5)[C@@H]3O)/C=C/C=C/C=C/C=C/C=C/C=C/C=C/[C@H](C)[C@@H](O)[C@@H](C)[C@H](C)OC(=O)C[C@H](O)C[C@H](O)CC[C@@H](O)[C@H](O)C[C@H](O)C[C@](O)(C[C@@H]1O)O2 | – | – | Activity [1]: Active
2 | C[C@@H]1[C@H](O)[C@@H](C)/C=C/C=C/C=C/C=C/C=C/C=C/C=C/[C@H](O[C@@H]2O[C@H](C)[C@@H](O)[C@H](NCCCNC(=O)CNC(=O)[C@@H]3[C@@H](O)[C@H](F)[C@@]4(O)C[C@@H](O)C[C@@H](O)[C@H](O)CC[C@@H](O)C[C@@H](O)CC(=O)O[C@@H](C)[C@H](C)[C@H](O)[C@@H](C)/C=C/C=C/C=C/C=C/C=C/C=C/C=C/[C@H](O[C@@H]5O[C@H](C)[C@@H](O)[C@H](N)[C@@H]5O)C[C@@H]3O4)[C@@H]2O)C[C@@H]2O[C@](O)(C[C@@H](O)C[C@@H](O)[C@H](O)CC[C@@H](O)C[C@@H](O)CC(=O)O[C@H]1C)C[C@H](O)[C@H]2C(=O)O[13CH3] | 50 | 13 | selectivity ratio [3]: 6
3 | COC(=O)[C@H]1[C@@H]2C[C@@H](O[C@@H]3O[C@H](C)[C@@H](O)[C@H](N)[C@@H]3O)/C=C/C=C/C=C/C=C/C=C/C=C/C=C/[C@H](C)[C@@H](O)[C@@H](C)[C@H](C)OC(=O)C[C@H](O)C[C@H](O)CC[C@@H](O)[C@H](O)C[C@H](O)C[C@](O)(C[C@@H]1O)O2 [AMPHOTERICIN B ME ESTER] | – | – | Activity [4]: Active
4 | C[C@@H]1[C@H](O)[C@@H](C)/C=C/C=C/C=C/C=C/C=C/C=C/C=C/[C@H](O[C@@H]2O[C@H](C)[C@@H](O)[C@H](N)[C@@H]2O)C[C@@H]2O[C@](O)(C[C@@H](O)C[C@@H](O)[C@H](O)CC[C@@H](O)C[C@@H](O)CC(=O)O[C@H]1C)C[C@H](O)[C@H]2C(=O)O [AMPHOTERICIN B] | 10 | 2 | Activity [5]: Active
